Data published in patent publication US12195427B2, “MASP-2 inhibitors and methods of use” (priority 2018, dated 2025).

Target: MASP-2 CCP2-SP (Homo sapiens (Human), UniProt O00187)
Experiment: MASP-2 co-crystallization, X-ray crystallography and structure analysis (H-bonds, van der Waals contacts);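 for Ligand-pharmacophore element distance, pharmacophore element C2: distance from averaged pharmacophore element to bound ligand; missing value means element absent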;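 for Ligand-pharmacophore element distance, pharmacophore element C3: distance from averaged pharmacophore element to bound ligand; missing value means element absent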;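 for Ligand-pharmacophore element distance, pharmacophore element C4: distance from averaged pharmacophore element to bound ligand; missing value means element absent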;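 for Ligand-pharmacophore element distance, pharmacophore element C5: distance from averaged pharmacophore element to bound ligand; missing value means element absent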
Set-up: van der Waals contact distance, MASP-2 HIS 483 atom CD2 / van der Waals contact distance, MASP-2 HIS 483 atom NE2 / van der Waals contact distance, SER 654 C to compound atom / van der Waals contact distance, SER 654 O to compound atom / van der Waals contact distance, TRP 655 C to compound atom / van der Waals contact distance, MASP-2 GLY 528 atom CA / van der Waals contact distance TRP 655 atom CZ3 / van der Waals contact distance TRP 655 atom N / van der Waals contact distance TRP 655 atom CE3 / van der Waals contact distance GLY 656 atom C / van der Waals contact distance GLY 656 atom CA / van der Waals contact distance GLY 656 atom O / van der Waals contact distance, MASP-2 TYR 607 atom CD1 / van der Waals contact distance, MASP-2 PRO 606 atom O / d(C3,CA1) / d(CA1,N1)2 / d(H4,O1) / d(H4,O2) / d(O1,O2) / d(CA1,O2) / d(CA6,O1) / d(CA6,O2) / d(CA1,C5) / d(O2,H3) / d(N2,C2) / d(CA5,N2) / d(N2,C4) / d(N2,C6) / d(N2,CA3) / d(N2,O3) / d(O4,H2): unit not given beside the values
Procedure, shortened: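 Human MASP-2 CCP2-SP (± 6His) expressed in E. coli and crystallized; crystals soaked in crystallization solution containing inhibitor, cryoprotected with 20% glycerol or frozen directly. Synchrotron data at 1.0 wavelength; molecular replacement from 1Q3X, partial refinement; one ligand pose analyzed; LigPlot+ contacts may include H-bonds.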

[1] = Table A5-1 pharmacophore: distance between elements, S2/S1 region
[2] = Table A5-2 pharmacophore distance, S3/S4 region
[3] = Table A7-1, between pharmacophore elements of the bound compound
[4] = Table A8-6, nearest protein atom in cell to the left

Sequence of MASP-2 CCP2-SP (O00187 445-686): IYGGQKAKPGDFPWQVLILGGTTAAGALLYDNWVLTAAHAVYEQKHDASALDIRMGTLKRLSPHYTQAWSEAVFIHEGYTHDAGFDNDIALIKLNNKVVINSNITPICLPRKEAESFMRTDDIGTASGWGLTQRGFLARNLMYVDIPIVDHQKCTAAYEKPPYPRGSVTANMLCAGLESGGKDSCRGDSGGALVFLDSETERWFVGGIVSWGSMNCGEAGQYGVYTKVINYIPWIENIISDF
Sequence of MASP-2 CCP2-SP (O00187 364-432 partner): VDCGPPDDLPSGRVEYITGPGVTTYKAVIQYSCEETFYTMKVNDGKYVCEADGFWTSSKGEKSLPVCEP

H-bond distance to MASP-2 ASP 627 atom OD2 (Table A1 (H-Bonds), ASP 627 OD2): 3.09
H-bond distance to MASP-2 CYS 660 atom SG (Table A1 (H-Bonds), CYS 660 SG): 3.16
H-bond distance to MASP-2 GLY 656 atom N (Table A1 (H-Bonds), GLY 656 N): 3.24
H-bond distance to MASP-2 SER 654 atom O (Table A1 (H-Bonds), SER 654 O): 2.7
H-bond distance to MASP-2 SER 657 atom O (Table A1 (H-Bonds), SER 657 O): 2.75
H-bond distance to MASP-2 SER 657 atom OG (Table A1 (H-Bonds), SER 657 OG): 3.19
van der Waals contact distance, MASP-2 ASP 526 atom C (Table A2-1): 3.29
van der Waals contact distance, MASP-2 ASP 526 atom CA (Table A2-1): 3.87
van der Waals contact distance, MASP-2 HIS 483 atom CD2 (Table A2-1): 3.81
van der Waals contact distance, MASP-2 GLY 528 atom N (Table A2-2): 3.4
van der Waals contact distance, MASP-2 PHE 529 atom CE1 (Table A2-3): 3.68
van der Waals contact distance, SER 654 C to compound atom (Table A2-11): 3.68
Ligand-pharmacophore element distance, pharmacophore element C2 (Table A4-1, element C2): 0
Ligand-pharmacophore element distance, pharmacophore element C3 (Table A4-1, element C3): 0
Ligand-pharmacophore element distance, pharmacophore element C4 (Table A4-1, element C4): 3.8
Ligand-pharmacophore element distance, pharmacophore element C5 (Table A4-1, element C5): 0
Ligand-pharmacophore element distance, pharmacophore element C6 (Table A4-1, element C6): 0
Ligand-pharmacophore element distance, pharmacophore element C7 (Table A4-1, element C7): 0
Ligand-pharmacophore element distance, pharmacophore element CA1 (Table A4-1, element CA1): 0.35
Ligand-pharmacophore element distance, pharmacophore element CA2 (Table A4-1, element CA2): 0
Ligand-pharmacophore element distance, pharmacophore element CA3 (Table A4-1, element CA3): 0
Ligand-pharmacophore element distance, pharmacophore element CA4 (Table A4-1, element CA4): 1.47
Ligand-pharmacophore element distance, pharmacophore element CA5 (Table A4-1, element CA5): 0
Ligand-pharmacophore element distance, pharmacophore element CA6 (Table A4-1, element CA6): 4.96
d(CA1,N1) [1]: 3.57
d(CA1,O1) [1]: 5.15
d(CA1,O2) [1]: 9.42
d(CA6,O1) [1]: 7.04
d(CA6,O2) [1]: 8.45
d(H4,O1) [1]: 5.59
d(H4,O2) [1]: 8.32
d(O1,O2) [1]: 8.70
d(N2,C4) [2]: 7.94
d(O2,H3) [2]: 5.29
d(O2,N2) [2]: 4.42
a(CA1, O1, O2) (Table A6-1 pharmacophore angle): 147.27
a(O1, CA6, O2) (Table A6-1 pharmacophore angle): 131.55
a(O1, O2, H4) (Table A6-1 pharmacophore angle): 105.44
A(N1, CA1, O1) a) (Table A6-1 pharmacophore angle, all compounds with protonatable center N1 except Methyl-amino-pyridine): 168.87
a(O1, O2, H3) (Table A6-2 pharmacophore angle): 54.88
a(O1, O2, N2) (Table A6-2 pharmacophore angle): 62.73
a(O2, N2, C4) (Table A6-2 pharmacophore angle): 154.82
a(O2, N2, C4) 2 (Table A6-2 pharmacophore angle): 49.80
Pharmacophore torsion angle a(CA6, O1, H4, O2) [3]: 55.30
Pharmacophore torsion angle a(H4, O1, O2, H3) [3]: 105.58
Pharmacophore torsion angle a(H4, O1, O2, N2) [3]: 125.02
Pharmacophore torsion angle a(N1, CA1, O2, H4) [3]: −109.82
Pharmacophore torsion angle a(O1, H4, O2, CA1) [3]: −48.11
Pharmacophore torsion angle a(O1, O2, N2, CA4) (Table A7-2, between pharmacophore elements of the bound compound): 155.91
Pharmacophore protein distance to MET_658 (first MET_658 column) (Table A8-6, 6th residue column, nearest protein atom in cell to the left): 2.55
Pharmacophore protein distance to MET_658 (second MET_658 column) (Table A8-6, 9th residue column, nearest protein atom in cell to the left): 3.25
Pharmacophore protein distance to GLY_528 [4]: 3.92
Pharmacophore protein distance to PHE_529 [4]: 2.93
Pharmacophore protein distance to PRO_608 [4]: 4.39
Pharmacophore protein distance to SER_611 [4]: 2.96
Pharmacophore protein distance to TRP_655 (Table A8-6, pharmacophore elements C6, CA3, O3, H1, nearest protein atom in cell to the left): 3.27
SMILES: C[C@H](NC(=O)[C@@H](CCc1ccccc1)NCc1ccc(N2CCOCC2)cc1)C(=O)NCc1ccc(C(=N)N)cc1 [compound 1149]
